The source of these data is paper PMC10498151 (RSC Advances, 2023).

Values after ≈ are worked out from the molar mass of the structure shown. Where two headings read alike, the source gives them in different places. A value given as a limit tells only on which side of the number the result lay.

The term pKa denotes the pH at which an ionisable group is half protonated.

The conditions of series [1]: cited from earlier work.
Series [2] deals with Bacteroides thetaiotaomicron (ATCC 29148). The experiment in a line: microbe, parasite or virus in culture. In kind it is cell-based. To be noted: ATCC29148.
Series [3] relates to Porphyromonas asaccharolytica (CI). The series is described as follows: microbe, parasite or virus in culture. In kind it is cell-based.
The subject of series [4] is Bacteroides fragilis. The experiment in a line: microbe, parasite or virus in culture. In kind it is cell-based.
Series [5] concerns Parvimonas micra (ATCC 3870). The experiment in a line: microbe, parasite or virus in culture. In kind it is cell-based.
The subject of series [6] is Prevotella spp. In kind it is cell-based.
The subject of series [7] is Finegoldia magna (CI). The series is described as follows: microbe, parasite or virus in culture. In kind it is cell-based.
Series [8] deals with Fusobacterium nucleatum. The series is described as follows: microbe, parasite or virus in culture. In kind it is cell-based.
Series [9] deals with Bacteroides ovatus (ATCC 84834). The experiment in a line: microbe, parasite or virus in culture. In kind it is cell-based. The conditions noted are these: ATCC84834.
Series [10] has as its system Clostridium perfringens. In kind it is cell-based.
For series [11], the system named is Clostridium butyricum (CI). The experiment in a line: microbe, parasite or virus in culture. In kind it is cell-based.
Series [12] has as its system Prevotella intermedia/nigres-cens (ATCC 25611). The series is described as follows: microbe, parasite or virus in culture. In kind it is cell-based, Prevotella intermedia/nigrescens. The conditions noted are these: ATCC25611.
The subject of series [13] is RAW 264.7 cells.
Series [14] relates to Eggerthella lenta (ATCC 43055). The series is described as follows: microbe, parasite or virus in culture. In kind it is cell-based. The conditions noted are these: ATCC43055.
Series [15] concerns Clostridium difficile. The series is described as follows: microbe, parasite or virus in culture. In kind it is cell-based.
Series [16] deals with Porphyromonas sp. (CI). The series is described as follows: microbe, parasite or virus in culture. In kind it is cell-based.
In series [17] the test system is Peptostreptococcus anaerobius (CI). The series is described as follows: microbe, parasite or virus in culture. In kind it is cell-based.
In series [18] the test system is Other Bacteroides spp. and Parabacteroides. In kind it is cell-based, Bacteroides spp. and Parabacteroides distasonis.
The subject of series [19] is Clostridium sporogenes (ATCC 3584). The series is described as follows: microbe, parasite or virus in culture. The conditions noted are these: ATCC3584. In kind it is cell-based.
The subject of series [20] is Cutibacterium acnes. The experiment in a line: microbe, parasite or virus in culture. In kind it is cell-based.
In series [21] the test system is C. difficile. The conditions noted are these: C. difficile infection, review ref 25; cited from earlier work.
Series [22] has as its system Fusobacterium mortiferum. The experiment in a line: microbe, parasite or virus in culture. In kind it is cell-based.
Series [23] concerns Porphyromonas gingivalis (ATCC 33277). The series is described as follows: microbe, parasite or virus in culture. In kind it is cell-based.
Series [24] has as its system Actinomyces odontolyticus (CI). In kind it is cell-based.
The conditions of series [25]: determined in PBS buffer ref 47; cited from earlier work.
The test system of series [26] is Clostridium sordellii (CI). In kind it is cell-based.
Setting [27] is: Bacteroides fragilis, ATCC25285.
The mark [28] stands for this setting: Fusobacterium nucleatum, ATCC25586.
The mark [29] stands for this setting: Clostridioides difficile, ATCC43255.
[30] abbreviates: Porphyromonas gingivalis, ATCC33277.

As to `O=[N+]([O-])c1ccc(C2=NCCN2c2ccccc2)cc1` [its imidazoline homologue], the pKa in series [1] is recorded as 7.65.
On to `O=[N+]([O-])c1ccc(C2=[N+]([O-])c3ccccc3N3CCN=C23)cc1` [1k, 4-(4-Nitrophenyl)-1,2-dihydroimidazo[1,2-a]quinoxaline 5-oxide], for which the MIC in series [2] was at most 0.06 µg/mL; in series [3] it was at most 0.06 µg/mL; in [4] (setting [27]), at most 0.06 µg/mL; in series [5] (Parvimonas micra, ATCC3870) it was at most 0.06 µg/mL; in series [7] (Finegoldia magna) it was 1 µg/mL (≈ 3.24 µM); in series [8] (setting [28]) it was at most 0.06 µg/mL. The MIC in [9], in [11], in [12], in series [14], in [15] (setting [29]) and in series [16] (Porphyromonas) was at most 0.06 µg/mL in each case. Besides, the MIC in series [17] is at most 0.06 µg/mL; in series [19], at most 0.06 µg/mL; in series [20], 32 µg/mL (≈ 104 µM). For the same molecule, the “Selectivity index (>100 μg mL^−1/MIC90)” value in series [4] was above 1667; in series [6] it was above 1667; in [8], above 1667; in series [10], above 800; in series [15], above 1667; in series [18], above 1667. The “Selectivity index (IS)” value in series [13] is above 800.
Turning to `CN[C@H](CC(C)C)C(=O)N[C@H]1C(=O)N[C@@H](CC(N)=O)C(=O)N[C@H]2C(=O)N[C@H]3C(=O)N[C@H](C(=O)N[C@H](C(=O)O)c4cc(O)cc(O)c4-c4cc3ccc4O)[C@H](O)c3ccc(c(Cl)c3)Oc3cc2cc(c3O[C@@H]2O[C@H](CO)[C@@H](O)[C@H](O)[C@H]2O[C@H]2C[C@](C)(N)[C@H](O)[C@H](C)O2)Oc2ccc(cc2Cl)[C@H]1O` [vancomycin], in series [21], the recurrence after treatment was 24.0% and the treatment failure is reported as 14.2%.
With `O=[N+]([O-])c1ccc(C2=NCCCN2c2ccccc2)cc1` [1-phenyl-2-4-nitrophenyl-1,4,5,6-tetrahydropyrimidine], the pKa in series [1] is 10.51.
Turning to `Cc1ncc([N+](=O)[O-])n1CCO` [Mtz, metronidazole, reference compound], the recurrence after treatment in [21] is 27.1%. The treatment failure in [21] is 22.4%. Also, the MIC is 1 µg/mL (≈ 5.84 µM) in [2]; 0.25 µg/mL (≈ 1.46 µM) in series [3]; 0.25 µg/mL (≈ 1.46 µM) in series [4] (setting [27]); 0.125 µg/mL (≈ 0.73 µM) in [5] (Parvimonas micra, ATCC3870); 0.25 µg/mL (≈ 1.46 µM) in series [22]; 0.125 µg/mL (≈ 0.73 µM) in [7] (Finegoldia magna). In addition, the MIC in [8] (setting [28]) was 0.125 µg/mL (≈ 0.73 µM); in [9], 1 µg/mL (≈ 5.84 µM); in series [23] (setting [30]), at most 0.06 µg/mL; in [11], at most 0.06 µg/mL; in [12], 1 µg/mL (≈ 5.84 µM); in [14] it was 0.25 µg/mL (≈ 1.46 µM). Moreover, the MIC in [15] (setting [29]) was 0.25 µg/mL (≈ 1.46 µM); in [16] (Porphyromonas) it was 0.125 µg/mL (≈ 0.73 µM); in series [17], 0.125 µg/mL (≈ 0.73 µM); in series [19], 0.25 µg/mL (≈ 1.46 µM); in series [20] it was above 64 µg/mL.
Turning to “5-phenyl-2,3-dihydropyrimidoquinoxaline N-oxide [1a]”, the MIC in series [4] was 1 µg/mL; in [24], 32 µg/mL; in [5], 0.125 µg/mL; in series [7], 2 µg/mL; in series [8], 0.125 µg/mL; in [23] it was at most 0.06 µg/mL. In addition, the MIC in series [15] worked out at 4 µg/mL; in series [16], 0.125 µg/mL; in [26], 16 µg/mL. The “Selectivity index (>100 μg mL^−1/MIC90)” value is above 100 in [4]; above 100 in [6]; above 100 in [8]; above 6 in [10]; above 25 in [15]; above 100 in series [18]. In addition, in [25], the “logP: experimental log of the octanol/water partition coefficient” value was −0.149. In addition, the Cell viability in series [13] is given as 98%.
In the case of `[O-][N+]1=C(c2ccc(Cl)cc2)C2=NCCN2c2ccccc21` [1j, 4-(4-Chlorophenyl)-1,2-dihydroimidazo[1,2-a]quinoxaline 5-oxide], the MIC in series [2] is 0.125 µg/mL (≈ 0.42 µM); in series [3], at most 0.06 µg/mL; in series [4] (setting [27]), 0.125 µg/mL (≈ 0.42 µM); in series [5] (Parvimonas micra, ATCC3870), at most 0.06 µg/mL; in series [7] (Finegoldia magna), 0.25 µg/mL (≈ 0.84 µM); in series [8] (setting [28]), at most 0.06 µg/mL. Moreover, the MIC in [9] is 0.125 µg/mL (≈ 0.42 µM); in [23] (setting [30]), at most 0.06 µg/mL; in series [11], at most 0.06 µg/mL; in series [12], at most 0.06 µg/mL; in series [14], at most 0.06 µg/mL; in [15] (setting [29]) it was 0.25 µg/mL (≈ 0.84 µM). The MIC in series [16] (Porphyromonas) is at most 0.06 µg/mL; in series [17] it was 0.25 µg/mL (≈ 0.84 µM); in [19], 0.25 µg/mL (≈ 0.84 µM). Also, the “Selectivity index (>100 μg mL^−1/MIC90)” value in [4] is listed as above 800; in series [6], above 1667; in series [8], above 800; in series [10] it was above 100; in series [18], above 800. Further, in series [25], the “logP: experimental log of the octanol/water partition coefficient” value is 1.292.
